Source: patent US20210045385A1, “PYRIDAZINONE-SUBSTITUTED KETOXIMES AS HERBICIDES” (FMC Corporation, priority 2018, published 2021)

Experiments:
Format in all cases: in vivo
[1] = system: Italian ryegrass (Lolium multiflorum); assay: Test A preemergence, visual plant response rating; conditions: approx. 10 days
Procedure, shortened: (§1)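 Ratings 0–100 (100 = complete control), visual, vs untreated controls at ~10 days. Application pre- or postemergence; solvent mixture with surfactant; loam/sand medium.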

kochia (Kochia scoparia) [2] = assay: Test A preemergence, visual plant response rating; conditions: approx. 10 days
Procedure, shortened: as §1

[3] = system: ragweed (common ragweed, Ambrosia elatior); assay: Test A preemergence, visual plant response rating; conditions: approx. 10 days
Procedure, shortened: as §1

[4] = system: foxtail, green (green foxtail, Setaria viridis); assay: Test A preemergence, visual plant response rating; conditions: approx. 10 days
Procedure, shortened: as §1

[5] = system: pigweed (Amaranthus retroflexus); assay: Test A preemergence, visual plant response rating; conditions: approx. 10 days
Procedure, shortened: as §1

[6] = system: barnyardgrass (Echinochloa crus-galli); assay: Test A preemergence, visual plant response rating; conditions: approx. 10 days
Procedure, shortened: as §1

rice (Oryza sativa) = assay: Test B flooded paddy test, visual plant response rating; conditions: 250 g ai/ha, Flood, applied to paddy water, 2-leaf stage, evaluated after 13 to 15 days
Procedure, shortened: (§2)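 Rice, umbrella sedge, ducksalad and barnyardgrass grown to 2-leaf stage; pots flooded 3 cm above soil and compound applied directly to paddy water, depth maintained.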

[7] = system: ducksalad (Heteranhera limosa); assay: as above; conditions: 250 g ai/ha, Flood, applied to paddy water, 2-leaf stage, evaluated after 13 to 15 days
Procedure, shortened: as §2

[8] = system: sedge, umbrella (small-flower umbrella sedge, Cyperus difformis); assay: as above; conditions: 250 g ai/ha, Flood, applied to paddy water, 2-leaf stage, evaluated after 13 to 15 days
Procedure, shortened: as §2

[9] = system: barnyardgrass (Echinochloa crus-galli); assay: as above; conditions: 250 g ai/ha, Flood, applied to paddy water, 2-leaf stage, evaluated after 13 to 15 days
Procedure, shortened: as §2

corn (Zea mays) = assay: Test A postemergence, visual plant response rating; conditions: for Corn plant response rating (0 to 100 scale): 500 g ai/ha, postemergence, 0 is no effect, 100 is complete control; for Corn plant response rating: Postemergence, 125 g ai/ha, 0 to 100 scale (0 no effect, 100 complete control)
Procedure, shortened: as §1

[10] = system: Italian ryegrass (Lolium multiflorum); assay: Test A postemergence, visual plant response rating; conditions: for Ryegrass, Italian plant response rating (0 to 100 scale): 500 g ai/ha, postemergence, 0 is no effect, 100 is complete control; for Ryegrass, Italian plant response rating: Postemergence, 125 g ai/ha, 0 to 100 scale (0 no effect, 100 complete control)
Procedure, shortened: as §1

kochia (Kochia scoparia) [11] = assay: Test A postemergence, visual plant response rating; conditions: for Kochia plant response rating (0 to 100 scale): 500 g ai/ha, postemergence, 0 is no effect, 100 is complete control; for Kochia plant response rating: Postemergence, 125 g ai/ha, 0 to 100 scale (0 no effect, 100 complete control)
Procedure, shortened: as §1

[12] = system: ragweed (common ragweed, Ambrosia elatior); assay: Test A postemergence, visual plant response rating; conditions: for Ragweed plant response rating (0 to 100 scale): 500 g ai/ha, postemergence, 0 is no effect, 100 is complete control; for Ragweed plant response rating: Postemergence, 125 g ai/ha, 0 to 100 scale (0 no effect, 100 complete control)
Procedure, shortened: as §1

[13] = system: blackgrass (Alopecurus myosuroides); assay: Test A postemergence, visual plant response rating; conditions: for Blackgrass plant response rating (0 to 100 scale): 500 g ai/ha, postemergence, 0 is no effect, 100 is complete control; for Blackgrass plant response rating: Postemergence, 125 g ai/ha, 0 to 100 scale (0 no effect, 100 complete control)
Procedure, shortened: as §1

[14] = system: foxtail, green (green foxtail, Setaria viridis); assay: Test A postemergence, visual plant response rating; conditions: for Foxtail, Green plant response rating (0 to 100 scale): 500 g ai/ha, postemergence, 0 is no effect, 100 is complete control; for Foxtail, Green plant response rating: Postemergence, 125 g ai/ha, 0 to 100 scale (0 no effect, 100 complete control)
Procedure, shortened: as §1

[15] = system: pigweed (Amaranthus retroflexus); assay: Test A postemergence, visual plant response rating; conditions: for Pigweed plant response rating (0 to 100 scale): 500 g ai/ha, postemergence, 0 is no effect, 100 is complete control; for Pigweed plant response rating: Postemergence, 125 g ai/ha, 0 to 100 scale (0 no effect, 100 complete control)
Procedure, shortened: as §1

[16] = system: wheat (Triticum aestivum); assay: Test A postemergence, visual plant response rating; conditions: for Wheat plant response rating (0 to 100 scale): 500 g ai/ha, postemergence, 0 is no effect, 100 is complete control; for Wheat plant response rating: Postemergence, 125 g ai/ha, 0 to 100 scale (0 no effect, 100 complete control)
Procedure, shortened: as §1

[17] = system: barnyardgrass (Echinochloa crus-galli); assay: Test A postemergence, visual plant response rating; conditions: for Barnyardgrass plant response rating (0 to 100 scale): 500 g ai/ha, postemergence, 0 is no effect, 100 is complete control; for Barnyardgrass plant response rating: Postemergence, 125 g ai/ha, 0 to 100 scale (0 no effect, 100 complete control)
Procedure, shortened: as §1

[18] = system: galium (catchweed bedstraw, Galium aparine); assay: Test A postemergence, visual plant response rating; conditions: for Galium plant response rating (0 to 100 scale): 500 g ai/ha, postemergence, 0 is no effect, 100 is complete control; for Galium plant response rating: Postemergence, 125 g ai/ha, 0 to 100 scale (0 no effect, 100 complete control)
Procedure, shortened: as §1

SMILES	Ryegrass, Italian plant response rating (0 to 100 scale) ([1]; 125 g ai/ha Preemergence)	Ryegrass, Italian plant response rating (0 to 100 scale) ([1]; 500 g ai/ha Preemergence)	Kochia plant response rating (0 to 100 scale) (kochia (Kochia scoparia) [2]; 125 g ai/ha Preemergence)	Kochia plant response rating (0 to 100 scale) (kochia (Kochia scoparia) [2]; 500 g ai/ha Preemergence)	Ragweed plant response rating (0 to 100 scale) ([3]; 125 g ai/ha Preemergence)	Ragweed plant response rating (0 to 100 scale) ([3]; 500 g ai/ha Preemergence)	Foxtail, Green plant response rating (0 to 100 scale) ([4]; 125 g ai/ha Preemergence)	Foxtail, Green plant response rating (0 to 100 scale) ([4]; 500 g ai/ha Preemergence)	Pigweed plant response rating (0 to 100 scale) ([5]; 125 g ai/ha Preemergence)	Pigweed plant response rating (0 to 100 scale) ([5]; 500 g ai/ha Preemergence)	Barnyardgrass plant response rating (0 to 100 scale) ([6]; 125 g ai/ha Preemergence)	Barnyardgrass plant response rating (0 to 100 scale) ([6]; 500 g ai/ha Preemergence)	Plant response rating, Rice (0 to 100 scale, 0 is no effect, 100 is complete control) (rice (Oryza sativa))	Plant response rating, Ducksalad (0 to 100 scale, 0 is no effect, 100 is complete control) [7]	Plant response rating, Sedge, Umbrella (0 to 100 scale, 0 is no effect, 100 is complete control) [8]	Plant response rating, Barnyardgrass (0 to 100 scale, 0 is no effect, 100 is complete control) [9]	Corn plant response rating (0 to 100 scale) (corn (Zea mays))	Corn plant response rating (corn (Zea mays))	Ryegrass, Italian plant response rating (0 to 100 scale) [10]	Ryegrass, Italian plant response rating [10]	also measured
CCn1nc(C)c(O)c(C(=NOC)c2cccc(Cl)c2)c1=O (mixture of isomers) [Compound 2]	20	60	0	0	0	0	0	50	0	0	0	50	0	0	0	0	0	0	80	20	Kochia plant response rating (0 to 100 scale) (kochia (Kochia scoparia) [11]): 20; Kochia plant response rating (kochia (Kochia scoparia) [11]): 10; Ragweed plant response rating (0 to 100 scale) [12]: 20; Ragweed plant response rating [12]: 10; Blackgrass plant response rating (0 to 100 scale) [13]: 20; Blackgrass plant response rating [13]: 0; Foxtail, Green plant response rating (0 to 100 scale) [14]: 20; Foxtail, Green plant response rating [14]: 0; Pigweed plant response rating (0 to 100 scale) [15]: 10; Pigweed plant response rating [15]: 0; Wheat plant response rating (0 to 100 scale) [16]: 10; Wheat plant response rating [16]: 10; Barnyardgrass plant response rating (0 to 100 scale) [17]: 30; Barnyardgrass plant response rating [17]: 0; Galium plant response rating (0 to 100 scale) [18]: 30; Galium plant response rating [18]: 10
CCn1nc(C)c(O)c(/C(=N/OC)c2cccc(C)c2)c1=O [Compound 1]	0	40	0	0	0	10	10	30	0	0	0	0	0	0	0	0	0	0	20	0	Kochia plant response rating (0 to 100 scale) (kochia (Kochia scoparia) [11]): 0; Kochia plant response rating (kochia (Kochia scoparia) [11]): 0; Ragweed plant response rating (0 to 100 scale) [12]: 0; Ragweed plant response rating [12]: 0; Blackgrass plant response rating (0 to 100 scale) [13]: 20; Blackgrass plant response rating [13]: 0; Foxtail, Green plant response rating (0 to 100 scale) [14]: 10; Foxtail, Green plant response rating [14]: 0; Pigweed plant response rating (0 to 100 scale) [15]: 0; Pigweed plant response rating [15]: 0; Wheat plant response rating (0 to 100 scale) [16]: 0; Wheat plant response rating [16]: 0; Barnyardgrass plant response rating (0 to 100 scale) [17]: 10; Barnyardgrass plant response rating [17]: 0; Galium plant response rating (0 to 100 scale) [18]: 30; Galium plant response rating [18]: 0
CCO/N=C(/c1ccc(C)cc1)c1c(O)c(C)nn(C)c1=O [Compound 16]	0	50	0	0	0	20	0	0	0	0	0	0	0	0	0	0	0	0	0	0	Kochia plant response rating (0 to 100 scale) (kochia (Kochia scoparia) [11]): 10; Kochia plant response rating (kochia (Kochia scoparia) [11]): 0; Ragweed plant response rating (0 to 100 scale) [12]: 30; Ragweed plant response rating [12]: 0; Blackgrass plant response rating (0 to 100 scale) [13]: 0; Blackgrass plant response rating [13]: 0; Foxtail, Green plant response rating (0 to 100 scale) [14]: 10; Foxtail, Green plant response rating [14]: 0; Pigweed plant response rating (0 to 100 scale) [15]: 0; Pigweed plant response rating [15]: 0; Wheat plant response rating (0 to 100 scale) [16]: 0; Wheat plant response rating [16]: 0; Barnyardgrass plant response rating (0 to 100 scale) [17]: 10; Barnyardgrass plant response rating [17]: 0; Galium plant response rating (0 to 100 scale) [18]: 0; Galium plant response rating [18]: 0
